The source of these data is patent publication US8357694B2, “Substituted 5,6-dihydro-6-phenylbenzo[F]isoquinolin-2-amine compounds” (ArQule, Inc., priority 2008, dated 2013).

Counter-ions that a name gives are not always drawn.

On to `CCCCN(C)CCc1ccc(Nc2ncc3c(n2)-c2ccccc2[C@H](c2ccc(Cl)cc2)C3)cc1` (as salt: hydrochloride), for which the melting point (commonly the temperature, or range, at which the solid turns liquid) fell in the range of 75 to 77 °C.

As for `Clc1ccc([C@@H]2Cc3cnc(Nc4ccccc4)nc3-c3ccccc32)cc1Cl` [Example 15, (S)-6-(3,4-dichlorophenyl)-N-phenyl-5,6-dihydrobenzo[h]quinazolin-2-amine], the melting point was 159 °C.

Turning to `OCCc1ccc(Nc2ncc3c(n2)-c2ccccc2C(c2ccc(Cl)cc2)C3)cc1` (stereo not shown) [Example 22, 2-(4-(6-(4-chlorophenyl)-5,6-dihydrobenzo[h]quinazolin-2-ylamino)phenyl)ethanol], the melting point was in the range of 163 to 164 °C.

Regarding `Brc1cccc(C2Cc3cnc(Nc4ccc(CCN5CCOCC5)cc4)nc3-c3ccccc32)c1` (stereo not shown) [Example 31, 6-(3-bromophenyl)-N-(4-(2-morpholinoethyl)phenyl)-5,6-dihydrobenzo[h]quinazolin-2-amine], the melting point was in the range of 86 to 88 °C.

`CN(C)CCCCNc1ncc2c(n1)-c1ccccc1C(c1cccc(Br)c1)C2` (stereo not shown) [Example 6, N^1-(6-(3-bromophenyl)-5,6-dihydrobenzo[h]quinazolin-2-yl)-N^4,N^4-dimethylbutane-1,4-diamine] gave a melting point of 115 to 117 °C.

Regarding `COCCNCCc1ccc(Nc2ncc3c(n2)-c2ccccc2[C@H](c2ccc(F)c(F)c2)C3)cc1` (as salt: HCl) [Example 82, (S)-6-(3,4-difluorophenyl)-N-(4-(2-(2-methoxyethylamino)ethyl)phenyl)-5,6-dihydrobenzo[h]quinazolin-2-amine], the melting point is 221 to 225 °C.

Compound `CCCCN(C)CCc1ccc(Nc2ncc3c(n2)-c2ccccc2[C@H](c2ccccc2F)C3)cc1` (as salt: hydrochloride) [Example 110, (R)—N-(4-(2-(butyl(methyl)amino)ethyl)phenyl)-6-(2-fluorophenyl)-5,6-dihydrobenzo[h]quinazolin-2-amine hydrochloride] registered a melting point of 78 to 81 °C.

In the case of `Fc1ccccc1[C@@H]1Cc2cnc(Nc3cccc(CCN4CCNCC4)c3)nc2-c2ccccc21` (as salt: hydrochloride) [Example 160, (R)-6-(2-fluorophenyl)-N-(3-(2-(piperazin-1-yl)ethyl)phenyl)-5,6-dihydrobenzo[h]quinazolin-2-amine hydrochloride], the melting point was in the range of 193 to 199 °C.

With `CC(O)CN(CCc1ccc(Nc2ncc3c(n2)-c2ccccc2C(c2cccc(Br)c2)C3)cc1)Cc1ccccc1` (stereo not shown) [Example 39, 1-(benzyl(4-(6-(3-bromophenyl)-5,6-dihydrobenzo[h]quinazolin-2-ylamino)phenethyl)amino)propan-2-ol], the melting point lay in the range of 90 to 92 °C.

In the case of `CCCCN(C)CCc1cccc(Nc2ncc3c(n2)-c2ccccc2[C@H](c2ccc(Cl)c(Cl)c2)C3)c1` (as salt: hydrochloride) [Example 168, (S)—N-(3-(2-(butyl(methyl)amino)ethyl)phenyl)-6-(3,4-dichlorophenyl)-5,6-dihydrobenzo[h]quinazolin-2-amine hydrochloride], the melting point is 162 to 166 °C.

Consider `COCCN1CCN(CCc2ccc(Nc3ncc4c(n3)-c3ccccc3C(c3ccc(Cl)c(Cl)c3)C4)cc2)CC1` (stereo not shown) [Example 33, 6-(3,4-dichlorophenyl)-N-(4-(2-(4-(2-methoxyethyl)piperazin-1-yl)ethyl)phenyl)-5,6-dihydrobenzo[h]quinazolin-2-amine], for which the melting point was in the range of 121 to 122 °C.

In turn, `COCCN1CCN(CCc2ccc(Nc3ncc4c(n3)-c3ccccc3C(c3ccccc3C(F)(F)F)C4)cc2)CC1` (stereo not shown) [Example 69, N-(4-(2-(4-(2-methoxyethyl)piperazin-1-yl)ethyl)phenyl)-6-(2-(trifluoromethyl)phenyl)-5,6-dihydrobenzo[h]quinazolin-2-amine] gave a melting point of 139 to 140 °C.

On to `COCCN1CCN(CCc2ccc(Nc3ncc4c(n3)-c3ccccc3[C@@H](c3ccccc3Cl)C4)cc2)CC1` (as salt: hydrochloride), for which the melting point was in the range of 143 to 145 °C.

In the case of `Clc1ccc(C2Cc3cnc(Nc4ccc(CCN5CCCCC5)cc4)nc3-c3ccccc32)c(Cl)c1` (stereo not shown) (as salt: hydrochloride) [Example 76, 6-(2,4-dichlorophenyl)-N-(4-(2-(piperidin-1-yl)ethyl)phenyl)-5,6-dihydrobenzo[h]quinazolin-2-amine hydrochloride], the melting point was in the range of 225 to 230 °C.

Consider `OCCc1ccc(Nc2ncc3c(n2)-c2ccccc2[C@@H](c2ccc(Cl)c(Cl)c2)C3)cc1`, for which the melting point fell in the range of 113 to 115 °C.

As to `Clc1ccc([C@@H]2Cc3cnc(Nc4ccc(CCN5CCCCC5)cc4)nc3-c3ccccc32)cc1` (as salt: hydrochloride), the melting point fell in the range of 261 to 263 °C.

The compound `CN1CCN(CCc2ccc(Nc3ncc4c(n3)-c3ccccc3C(c3cccc(Br)c3)C4)cc2)CC1` (stereo not shown) [Example 28, 6-(3-bromophenyl)-N-(4-(2-(4-methylpiperazin-1-yl)ethyl)phenyl)-5,6-dihydrobenzo[h]quinazolin-2-amine] came in with a melting point of 100 to 102 °C.

For `CC(C)c1ccc2c(c1)C(c1ccc(Cl)c(Cl)c1)Cc1cnc(N)nc1-2` (stereo not shown) [Example 20, 6-(3,4-dichlorophenyl)-8-isopropyl-5,6-dihydrobenzo[h]quinazolin-2-amine], the melting point fell in the range of 174 to 176 °C.

`Clc1ccc(C2Cc3cnc(Nc4ccc(CCN5CCOCC5)cc4)nc3-c3ccccc32)cc1Cl` (stereo not shown) [Example 50, 6-(3,4-dichlorophenyl)-N-(4-(2-morpholinoethyl)phenyl)-5,6-dihydrobenzo[h]quinazolin-2-amine] yielded a melting point of 180 to 181 °C.

As to `CN1CCN(CCc2ccc(Nc3ncc4c(n3)-c3ccccc3[C@H](c3ccc(Cl)c(Cl)c3)C4)cc2)CC1` (as salt: hydrochloride) [Example 114, (S)-6-(3,4-dichlorophenyl)-N-(4-(2-(4-methylpiperazin-1-yl)ethyl)phenyl)-5,6-dihydrobenzo[h]quinazolin-2-amine hydrochloride], the melting point lay within 236 to 238 °C.

`COCCN1CCN(CCc2cccc(Nc3ncc4c(n3)-c3ccccc3[C@@H](c3ccccc3F)C4)c2)CC1` (as salt: hydrochloride) [Example 164, (S)-6-(2-fluorophenyl)-N-(3-(2-(4-(2-methoxyethyl)piperazin-1-yl)ethyl)phenyl)-5,6-dihydrobenzo[h]quinazolin-2-amine]: the melting point was in the range of 148 to 150 °C.

`CN1CCN(CCc2cc(Nc3ncc4c(n3)-c3ccccc3[C@H](c3ccccc3F)C4)ccc2F)CC1` (as salt: hydrochloride) [Example 174, (R)—N-(4-fluoro-3-(2-(4-methylpiperazin-1-yl)ethyl)phenyl)-6-(2-fluorophenyl)-5,6-dihydrobenzo[h]quinazolin-2-amine hydrochloride salt] came in with a melting point of 225 to 229 °C.

In turn, `CCCCN(C)CCc1ccc(Nc2ncc3c(n2)-c2ccccc2[C@H](c2ccc(F)c(F)c2)C3)cc1` (as salt: hydrochloride) [Example 96, (S)—N-(4-(2-(butyl(methyl)amino)ethyl)phenyl)-6-(3,4-difluorophenyl)-5,6-dihydrobenzo[h]quinazolin-2-amine hydrochloride salt] yielded a melting point of 145 to 150 °C.

Turning to `CN(CCc1ccc(Nc2ncc3c(n2)-c2ccccc2[C@H](c2ccc(Cl)c(Cl)c2)C3)cc1)C1CCCCC1` (as salt: hydrochloride) [Example 106, (S)—N-(4-(2-(cyclohexyl(methyl)amino)ethyl)phenyl)-6-(3,4-dichlorophenyl)-5,6-dihydrobenzo[h]quinazolin-2-amine hydrochloride salt], the melting point fell in the range of 175 to 185 °C.

In turn, `CCN(CCc1ccc(Nc2ncc3c(n2)-c2ccccc2C(c2cccc(Br)c2)C3)cc1)C(C)C` (stereo not shown) [Example 40, 6-(3-bromophenyl)-N-(4-(2-(ethyl(isopropyl)amino)ethyl)phenyl)-5,6-dihydrobenzo[h]quinazolin-2-amine] registered a melting point of 67 to 69 °C.

In turn, `COCCNCCc1ccc(Nc2ncc3c(n2)-c2ccccc2[C@H](c2ccccc2F)C3)cc1` (as salt: hydrochloride) [Example 94, (R)-6-(2-fluorophenyl)-N-(4-(2-(2-methoxyethylamino)ethyl)phenyl)-5,6-dihydrobenzo[h]quinazolin-2-amine hydrochloride salt] registered a melting point of 198 to 201 °C.

On to `CN(C)CCCNc1ncc2c(n1)-c1ccccc1[C@@H](c1ccc(Cl)c(Cl)c1)C2` [Example 12, (R)—N^1-(6-(3,4-dichlorophenyl)-5,6-dihydrobenzo[h]quinazolin-2-yl)-N^3,N^3-dimethylpropane-1,3-diamine], for which the melting point was in the range of 59 to 62 °C.

`Fc1ccc(C2Cc3cnc(Nc4ccc(CCN5CCCCC5)cc4)nc3-c3ccccc32)cc1F` (stereo not shown) (as salt: hydrochloride) [Example 57, 6-(3,4-difluorophenyl)-N-(4-(2-(piperidin-1-yl)ethyl)phenyl)-5,6-dihydrobenzo[h]quinazolin-2-amine] had a melting point of 214 to 218 °C.

`CCCCN(C)CCc1ccc(Nc2ncc3c(n2)-c2ccccc2C(c2ccc(F)c(F)c2)C3)cc1` (stereo not shown) (as salt: hydrochloride) [Example 58, N-(4-(2-(butyl(methyl)amino)ethyl)phenyl)-6-(3,4-difluorophenyl)-5,6-dihydrobenzo[h]quinazolin-2-amine]: the melting point is 85 to 91 °C.

For the compound `CCCCN(C)CCc1ccc(Nc2ncc3c(n2)-c2ccccc2[C@@H](c2ccc(Br)cc2)C3)cc1` (as salt: hydrochloride) [Example 107, (R)-6-(4-bromophenyl)-N-(4-(2-(butyl(methyl)amino)ethyl)phenyl)-5,6-dihydrobenzo[h]quinazolin-2-amine hydrochloride salt], the melting point was 140 to 145 °C.

As to `CCCCNCCc1cc(Nc2ncc3c(n2)-c2ccccc2[C@H](c2ccccc2F)C3)ccc1F` (as salt: hydrochloride) [Example 171, (R)—N-(3-(2-(butylamino)ethyl)-4-fluorophenyl)-6-(2-fluorophenyl)-5,6-dihydrobenzo[h]quinazolin-2-amine hydrochloride salt], the melting point is 180 to 185 °C.
